One assay addresses T1, 15-PGDH (Homo sapiens, UniProt P15428).
T1 construct: 100,000 g supernatants prepared from PMA-treated HL-60 cells converted 15-HETE to 15-oxo-ETE; endogenous in cells; host or cells: HL-60 cells treated with PMA (16 nM, 24-72 h); freeze-thaw lysate, 100,000 g supernatant
T1 sequence (P15428 1-266): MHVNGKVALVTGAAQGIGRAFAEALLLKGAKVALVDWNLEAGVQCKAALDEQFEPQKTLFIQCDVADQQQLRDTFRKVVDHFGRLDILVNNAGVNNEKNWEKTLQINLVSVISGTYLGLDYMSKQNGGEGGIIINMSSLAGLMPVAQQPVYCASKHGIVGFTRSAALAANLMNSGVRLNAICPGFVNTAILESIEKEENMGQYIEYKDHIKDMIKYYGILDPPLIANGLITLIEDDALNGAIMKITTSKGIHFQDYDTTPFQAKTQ
The conditions noted are these: 15-PGDH of HL-60 cells (Agins et al. 1987); cited from earlier work.

For a further assay, the system named is A549 cells. Nature of the assay: 15-HETE generation by IL-1β-treated A549 cells. The class given is cell-based, human. As to the method:
FIG. 3 is a graph showing the relative chiralities of 15-HETE triggered by ASA. A549 cells (10^7 cells per flask) were exposed to IL-1β (1 ng/ml) for 24 h, treated with vehicle (0.1% vol/vol ethanol) (□) or ASA (▪) for 20 min and then incubated (30 min, 37° C.) in HBSS containing arachidonic acid (20 μM) and A23187 (5 μM). Products were chromatographed by RP-HPLC (as in FIG. 1B) and the region containing 15-HETE was collected, extracted with chloroform and treated with diazomethane. Chiral analysis was performed with a Bakerbond DNBPG (see Methods for details). Results are representative of two separate experiments showing similar results.
In incubations involving permeabilized A549 cells (prepared by a rapid freeze-thaw cycle), IL-1β-treated (1 ng/ml, 24 h) A549 cells (1.5×10^6 cells/ml) were pretreated for 20 min with either vehicle (0.1% EtOH), ASA (500 (M; used throughout), 5 (M 17-ODYA, an inhibitor of cytochrome P450, (Muerhoff A. S., et al. (1989) Prostaglandin and fatty acid ω and (ω-1)-oxidation in rabbit lung: acetylenic fatty acid mechanism-based inactivators as specific inhibitors. J Biol.Chem. 244: 749-756.), or […] Rev 5901 isomer, a 5-LO inhibitor, subjected to two cycles of rapid freezing in a dry ice-acetone bath and thawing to room temperature (full cycle <20 min), and incubated with arachidonic acid ([…] for 20 min at 37° C. in 4 ml of DPBS^2+. In experiments involving radiolabeled arachidonic acid, incubations were initiated with the addition of [^3H]-arachidonic acid (0.25 (Ci/ml) plus unlabeled arachidonic acid ([…] for 20 min at 37° C.
For time-course experiments involving the generation of 15-HETE from endogenous sources (see FIG. 2B), intact A549 cells were exposed to IL-1β (1 ng/ml) for up to 48 h and then treated with vehicle (containing 0.1% EtOH) or ASA for 20 min followed by addition of ionophore A23187 (5 μM) in 4 ml of HBSS for 30 min at 37° C.
The monohydroxy eicosanoids (i. e. 5-, 12- and 15-HETE) from A549 cells were analyzed using a Ultrasphere-ODS column (5 μm, 4.6 mm×25 cm) (Beckman Instruments, Fullerton, Calif.) was eluted with MeOH/H2O/acetic acid (65:35:0.01; v/v/v) as phase one (t0-20 min), and a linear gradient with MeOH/acetic acid (99.9:0.1, v/v) as phase two (20-45 min) at a flow rate of 1.0 ml/min. The R- and S-enantiomers of 15-HETE were resolved and identified using a chiral HPLC system similar to that reported by Hawkins et al. (1988). […] When indicated, generation of 15-HETE from endogenous sources was monitored by radioimmunoassay (RIA). […]

Assay [1] concerns A549 cell-PMN costimulation. In words: Eicosanoid formation in A549 cell-PMN coincubations. The class given is cell-based, human. The conditions noted are these: A549 cells exposed 20 min before addition of PMN. As for the experimental part:
In coincubation experiments, confluent A549 cells were exposed to IL-1β (1 ng/ml, 24 h), washed in HBSS and treated with vehicle alone or ASA for 20 min and arachidonic acid ([…] for 60 seconds at 37° C. Coincubations were performed by adding PMN to A549 cell monolayers followed by costimulation with ionophore A23187 (5 μM) in 4 ml of HBSS for 30 min at 37° C.
For analysis of LXs (including LXs and 15-epi-LXs) from A549 cell-PMN, coincubations were carried out using either a Waters (Bondapak C18 ([…]) column eluted with an isocratic mobile phase MeOH/H2O/acetic acid (60:40:0.01; v/v/v) with a flow rate of 0.6 ml/min or an Altex Ultrasphere ODS column (5 μm, 10 ×25 cm) eluted with MeOH/H2O/acetic acid (65:35:0.01; v/v/v) at a flow of 3 ml/min. Peptidoleukotrienes (LTC4 and LTD4) eluted in the MeOH fractions from Sep-Pak cartridge extractions were resolved with a Beckman Ultrasphere-ODS column eluted with MeOH/H2O/acetic acid (65:35:0.01; v/v/v), pH 5.7, at 1 ml/min. […] The material beneath peaks absorbing at 300 nm were individually collected after RP-HPLC and analyzed by gas chromatography-mass spectrometry (GC-MS) employing a Hewlett-Packard 5890 GC series II equipped with a 5971A mass-selective quadrapole detector as in Clària, J. and Serhan, C. […]

In the next assay the test system is HUVEC. In words: 3H-LTB4 binding to HUVEC. Conditions: 3H-LTB4, n=3. Further details: species or system human. As to the method:
Cell cultures and differentiation. HL-60 cells were seeded in RPMI medium supplemented with 100 U/ml penicillin, 100 μg/ml streptomycin, and 10% fetal calf serum (Hyclone, Logan, Utah), incubated at 37° C. with 5% CO2 atmosphere in 250 ml flasks. Individual flasks containing ˜[…] next received dimethyl sulfoxide (DMSO) (1.12% v/v, 120 h) or retinoic acid (RA) (1 μM, 120 h) or phorbol myristate acetate (PMA) (20 nM, 48 h). Before performing binding assays, cells were washed twice in phosphate buffered saline (PBS), Ca^2+- and Mg^2+-free, enumerated and suspended at 20×10^6 cells/ml in Tris buffer (10 mM), pH 7.4 (Fiore, S. et al.(1992) J. Biol. Chem. 267:16168). Nitro blue tetrazolium reduction was performed to monitor induction of polymorphonuclear phenotype as in (Imaizumi, M. and Breitman, T. R. (1986) Blood 67:1273), and cell adherence was determined for induction of macrophage-like phenotype (Collins, S. J. (1987) Blood 70:1273). […]
Ligand binding. ^3H-LXA4 and ^3H-LTB4 binding was performed essentially as in Fiore, S. et al.(1992) J. Biol. Chem. 267:16168. […] The incubations were rapidly centrifuged (60 sec, 12,000 g) on silicon oil (d=1.028), and cell-associated radioactivity was determined by liquid scintillation counting (Wallac 1409, Pharmacia, Piscataway, N.J.). […]

In assay [2] the target is T2, LXA4 specific binding sites of differentiated HL-60 cells (Homo sapiens, UniProt P25090).
T2 construct: endogenous in cells; host or cells: HL-60 cells differentiated with DMSO, retinoic acid or PMA; intact cells
T2 sequence (P25090 1-351): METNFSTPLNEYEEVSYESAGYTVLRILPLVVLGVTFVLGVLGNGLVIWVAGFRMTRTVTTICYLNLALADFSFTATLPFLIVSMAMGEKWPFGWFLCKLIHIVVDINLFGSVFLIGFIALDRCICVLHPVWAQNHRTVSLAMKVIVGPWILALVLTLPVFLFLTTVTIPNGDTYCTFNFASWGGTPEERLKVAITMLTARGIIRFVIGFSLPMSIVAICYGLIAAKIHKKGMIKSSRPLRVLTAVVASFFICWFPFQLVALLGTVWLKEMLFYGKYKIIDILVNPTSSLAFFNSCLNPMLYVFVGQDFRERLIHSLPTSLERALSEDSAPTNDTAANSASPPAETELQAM
In words: 3H-LXA4 specific binding to differentiated HL-60 cells. Conditions: competition, competitor 300 nM where printed.

Setting [3] is: pretreatment 20 min, 37° C., chiral HPLC.

As for `CCCCC[C@H](O)/C=C/C=C\C/C=C\C/C=C\CCCC(=O)O` [15-HETE, 15-hydroxyeicosatetraenoic acid], the “substrate efficiency compared to PGE2” value at 15-PGDH was 92%.
As to `CC(=O)Oc1ccccc1C(=O)O` [ASA, acetylsalicylic acid], the “effect on formation of 15-HETE” value with A549 cells (permeabilized IL-1β-treated A549 cells, arachidonic acid 20 μM) is recorded as “marked increase”. Further, in the assay with A549 cells (setting [3]), the “formation of 15S-HETE” value was “remained unaltered” and the “increase in the amounts of 15R-HETE” value was found to be 3 fold. For the same molecule, in assay [1], the “formation of LXs” value is given as “increase in the formation of LXs” and the “formation of pLTs (LTC4 plus LTD4)” value is on record as “decrease in pLTs”.
For `CCCCC/C=C\C[C@@H](O)/C=C/C=C/C=C\[C@@H](O)CCCC(=O)O` [LTB4, leukotriene B4], the “specific binding to HUVEC” value in the assay with HUVEC is recorded as “did not specifically bind”. Besides, in assay [2], the “displacement of 3H-LXA4 specific binding” value is listed as “Neither LXB4, LTB4, nor trihydroxyheptanoic acid (methyl ester) (300 nM) were able to displace”.

Source of the values: patent publication US20030134901A1, “Lipoxin compounds and their use in treating cell proliferative disorders” (priority 1993, published 2003).
